The record followed here is patent US12552790B2, “Positive modulators of the muscarinic acetylcholine receptor M4” (Vanderbilt University, priority 2023, dated 2026).

This test addresses T1, hM4 (Homo sapiens, UniProt P08173).
T1 construct: expressed in transfected cells; host or cells: CHO cells stably expressing human M4 (G418 selection only)
T1 sequence (P08173 1-479): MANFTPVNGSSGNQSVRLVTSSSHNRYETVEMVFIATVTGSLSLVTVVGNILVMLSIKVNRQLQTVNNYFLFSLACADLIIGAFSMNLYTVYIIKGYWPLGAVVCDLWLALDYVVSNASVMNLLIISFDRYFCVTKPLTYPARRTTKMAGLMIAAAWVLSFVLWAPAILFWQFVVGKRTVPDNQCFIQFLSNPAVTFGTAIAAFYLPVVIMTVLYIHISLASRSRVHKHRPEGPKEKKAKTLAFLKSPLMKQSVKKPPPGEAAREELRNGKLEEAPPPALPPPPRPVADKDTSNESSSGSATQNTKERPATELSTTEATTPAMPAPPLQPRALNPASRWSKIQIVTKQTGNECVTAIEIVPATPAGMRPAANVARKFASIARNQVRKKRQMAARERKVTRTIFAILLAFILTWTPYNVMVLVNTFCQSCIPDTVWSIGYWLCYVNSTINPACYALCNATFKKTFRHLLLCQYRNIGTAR
Nature of the test: Cellular cAMP Gi HTRF assay in CHO cells, agonist and potentiator modes. The class given is cell-based. The source says:
Activation of the M4 receptor leads to the inhibition of cAMP production by coupling to Gi/o proteins. To measure the level of cAMP inhibition by M4 allosteric modulators, a Homogeneous Time-Resolved Fluorescence (HTRF®) cAMP assay was employed using CHO cells stably expressing human or rat M4 receptors. The HTRF cAMP assay is a Time-Resolved Resonance Energy Transfer (TR-FRET) competitive immunoassay. Endogenous intracellular cAMP generated by cells competes with Europium cryptate-labeled cAMP (Europium donor, emission […]) for the binding to a cAMP antibody labeled with d2 (d2-acceptor, emission […]). Thus, the fluorescence emission ratio (665 nm/620 nm) is inversely proportional to the cAMP amount in the cells. Compound-mediated M4 activation results in an increase in HTRF ratio (665 nm/620 nm), indicative of a decrease in intracellular cAMP level. To monitor agonist activity, compounds were added to the M4 cells in the presence of an EC80 concentration of forskolin (adenylyl cyclase activator) which induces a submaximal intracellular cAMP level. To assess potentiator activity, compounds were added to the M4 cells with an EC80 concentration of forskolin in the presence of an EC20 concentration of acetylcholine. This functional assay allows determination of the potency and efficacy of compounds directly activating or potentiating the Gi/o-coupled M4 receptor; representative data are shown in Table 3.
Functional agonist and potentiator activities of compounds were determined by measuring cAMP levels in Chinese Hamster Ovary (CHO) cells stably expressing human or rat M4 muscarinic receptors using an HTRF cAMP Gi/o kit. Cells were maintained in F12 medium containing 10% FBS, 20 mM HEPES, 1× Antibiotic/Antimycotic, and G418 (500 μg/ml) in 37° C. humidified incubators in the presence of 5% CO2. The day before assay, the cells were trypsinized and resuspended in plating medium (growth medium without G418). The cells were plated to white, solid, flat-bottomed, 384 well plates at densities of 4,000 and 6,000 cells/[…]/well, of human M4 and rat M4 cells, respectively. The cell plates were spun at 100×g for 1 min, then immediately placed in a 37° C. incubator in the presence of 5% CO2 overnight.
The next day, reagents were freshly diluted at a 2× concentration in assay buffer using F12 basal medium or stimulation buffer. All assay buffers contained 500 μM IBMX to block cAMP degradation. Activation of M4 by compounds was examined in cells stimulated with an EC80 concentration of forskolin to induce submaximal intracellular cAMP levels. Forskolin EC80 concentrations were determined from forskolin concentration response curves (CRCs) and ranged from 1.5 to 2.5 μM. Compounds (10 mM) were prepared in 100% DMSO and further serially diluted either 1:3 or 1:5 into a […] CRC in DMSO using a Bravo Liquid Handler in a 384 well microplate.
Agonist assay mode was used to assess the abilities of M4 compounds to directly activate M4 receptors in the absence of the agonist, acetylcholine. The 10-point serially diluted compounds, starting 30 μM as a final concentration, were transferred to a compound plate using an Echo plate reformat protocol. 2× assay buffer containing an EC80 concentration of forskolin concentration was added to the compound plate. Vehicle (1% DMSO) was added to the following control wells; baseline cAMP (no forskolin), forskolin max, and forskolin EC80. 10 μL/well of the prepared 2× assay buffer was immediately added to the cell plates using a Bravo 384 well tip liquid handler. The cell plates were immediately spun for 30 seconds at 100×g and incubated at 37° C. for 10 min with gentle shaking at 50 rpm. An acetylcholine CRC was also performed in the presence of an EC80 concentration of forskolin to determine the concentrations of acetylcholine inducing maximal (ECmax) and submaximal (EC20) cAMP inhibition in order to prepare for the subsequent potentiator mode assay. […]
In general terms: TR-FRET usually uses a lanthanide donor and a delayed reading to cut background.

The mark [1] stands for this setting: agonist mode, forskolin EC80, no acetylcholine.
Where [2] appears, read: agonist mode, forskolin EC80, no acetylcholine, read-out: hM4_cAMP Activity Agonist EC50.
Setting [3] is: potentiator mode, forskolin EC80 plus ACh EC20.
Setting [4] is: potentiator mode, forskolin EC80 plus ACh EC20, read-out: hM4_cAMP Activity PAM EC50.

Read-outs that look alike come from different tables or passages of the source.

Take `[2H]C1([2H])Oc2ccc(OC3CCN(c4nc5nn(C)c(=O)n5cc4C)CC3)cc2OC1([2H])[2H]` [Compound A6, 7-(4-((2,3-dihydrobenzo[b][1,4]dioxin-6-yl-2,2,3,3-d4)oxy)piperidin-1-yl)-2,6-dimethyl-[1,2,4]triazolo[4,3-a]pyrimidin-3(2H)-one]: the “hM4_cAMP Activity Agonist % ACh Max” value under setting [1] turned out to be 89 % ACh Max. For the same compound, the EC50 is, setting by setting: under setting [2], 16 nM; under setting [4], 3 nM. In addition, the “hM4_cAMP Activity PAM % ACh Max” value under setting [3] was found to be 70 % ACh Max.

Consider `[2H]C1([2H])Oc2ccc(OC3CCN(c4nc5c(cc4C)C(=O)NC5)CC3)cc2OC1([2H])[2H]` [Compound 3, 2-(4-((2,3-dihydrobenzo[b][1,4]dioxin-6-yl-2,2,3,3-d4)oxy)piperidin-1-yl)-3-methyl-6,7-dihydro-5H-pyrrolo[3,4-b]pyridin-5-one], for which the “hM4_cAMP Activity Agonist % ACh Max” value under setting [1] is reported as 106 % ACh Max. Besides, the EC50 is, setting by setting: under setting [2], 20 nM; under setting [4], 6 nM. Under setting [3], the “hM4_cAMP Activity PAM % ACh Max” value is 94 % ACh Max.

In the case of `[2H]C1([2H])Oc2ccc(OC3CCN(c4nc5nn(C)c(=O)n5c(C)c4C)CC3)cc2OC1([2H])[2H]` [Compound A10, 7-(4-((2,3-dihydrobenzo[b][1,4]dioxin-6-yl-2,2,3,3-d4)oxy)piperidin-1-yl)-2,5,6-trimethyl-[1,2,4]triazolo[4,3-a]pyrimidin-3(2H)-one], under setting [1], the “hM4_cAMP Activity Agonist % ACh Max” value was determined as 105 % ACh Max. Besides, the EC50 under setting [2] is 7 nM and the EC50 under setting [4] came to 2 nM. Under setting [3], the “hM4_cAMP Activity PAM % ACh Max” value is 82 % ACh Max.

As usually defined, the EC50 is the midpoint of the concentration-response curve.
